The text below walks through data of patent US10548883B2, “Benzotriazole-derived α and β-unsaturated amide compound used as TGF-β RI inhibitor” (GENFLEET THERAPEUTICS (SHANGHAI) INC., priority 2016, dated 2020).

Molecules are shown by their SMILES. pIC50: −log10 of the molar value. Several values for one entry are separate records, joined by “and”; a condition that tells them apart may be missing. Identical values can stand only once.

For assay [1], the system named is NIH/3T3 mouse embryonic cells. Briefly: Test of proliferation inhibition on NIH/3T3 mouse embryonic cells (CellTiter-Glo, with TGF-β1). Particulars: NIH3T3, 0.2 ng/mL TGF-β1, 72 h. The format is cell-based. The protocol: Promega's Luminescent Cell Viability Assay (CellTiter-Glo® method, i.e. ATP fluorescence activity detection and analysis), the compound is added to the cell culture plate for incubation. A substrate buffer for detecting intracellular ATP content was added on the day of detection. Slightly shake and centrifuge at 1000 rpm for 1 min. Tested after standing for 10 min. The assay plate was analyzed using Envision multifunctional enzyme marker of PerkinElmer, Inc., and the analysis mode was fluorescence detection, and the data was expressed by the reading of chemiluminescence signal at 400-700 nm.
i) When the cell growth coverage is about 70%, the cell layer was washed with 10 mL of Duchenne phosphate buffer (D-PBS) which is calcium- and magnesium-free, then 2 mL of 0.25% trypsin-EDTA digest was added. The cell culture flask was placed in a CO2 carbon dioxide incubator at 37° C. and incubated for 3-5 min, then 8 mL of complete culture medium containing 2% FBS DMEM cells was added, and the cells were puffed evenly into single cell and counted by Vi-cell cytometer, and NIH/3T3 cell suspension was diluted to 0.375×10^5/mL cells.
ii) 50 μL of 2% DMEM-containing medium was added around the 384-well cell culture plate, then 40 μL of cell suspension was added to the remaining wells to 1500 cells per well. The distribution of the cells was observed under a microscope, and the cell plates were placed in a cell culture incubator with 5% CO2 at 37° C.
iii) Dilution of the compound refers to the preparation of the compound.
iv) A mixture of 2% fetal bovine serum containing 1 ng/mL TGF-β1 in DMEM medium was added manually to the compound intermediate plate, 20 μL per well.
v) The compound intermediate plate was shook slightly for 10 sec at 1000 rpm/min and centrifuge for 10 sec.
vi) 10 uL of the mixed liquid from steps 4 and 5 of each well was transferred to the inoculated cell plate to a final volume of 50 μL by using a Bravo liquid workstation, and the final concentration of TGF-β1 was diluted to 0.2 ng/mL, and centrifuged for 10 sec at 1000 rpm/min. The plates were placed in an incubator with 5% carbon dioxide at 37° C., 5% carbon dioxide for 72 h. The final concentration of the compound is: (unit: μM)
vii) The cell plate containing the compound was cultured in a cell incubator with 5% CO2 at 37° C. for 3 days.
viii) After that, 25 μL of ATP fluorescence activity detection solution was added to each well of the cell plate, then shook gently for about 1 min and centrifuged at 500 rpm/min for about 30 sec, and the reading was performed in an Envision instrument after standing at room temperature for 10 min in the dark.
A general note: In ATP-based viability assays light output follows the ATP content of the culture.

In assay [2] the test system is CT-26 cells. As to the kind of experiment: Tumor cell proliferation inhibition in BALB/c mouse model of subcutaneously transplanted CT-26 cells, alone or combined with BioXcell-mPD-L1. Particulars: for Tumor volume: average ± SEM, small molecules 75 mg/kg PO twice a day, BioXcell-mPD-L1 10 mg/kg IP twice a week. The format is in vivo. Here is the method: The following table lists the animal grouping and dosing regimen of embodiment 1, the positive reference compound LY2157299 and the BioXcell PD-L1 monoclonal antibody (BioXcell-mPD-L1), which are used alone or in combination in vivo.
Mouse colon cancer CT-26 cells were cultured in vitro in a single layer, and culture conditions is RPMI1640 medium (Medium No. 1640, Roswell Parker Memorial Institute) supplemented with 10% fetal bovine serum at 37° C., 5% CO2. Passage was routinely digested with trypsin-EDTA twice a week. When the cell saturation is 80%-90%, the cells are collected, counted, and inoculated.
0.1 mL (1×10^5) CT-26 cells were subcutaneously inoculated into the right back of each BALB/c mouse. The mice were administered in groups according to the body weight of the mice on the second day after cell inoculation.
The experimental indicator is to investigate whether tumor growth is inhibited, delayed or cured. Tumor diameters were measured with Vernier calipers twice a week. The tumor volume is calculated as: V=0.5a×b^2, and a and b represent the long and short diameters of the tumor, respectively.
The antitumor effect of the compound was evaluated by TGI (%) or tumor proliferation rate T/C (%). TGI (%) reflects the tumor growth inhibition rate. Calculation of TGI (%): TGI (%)=[(1-(mean tumor volume at the end of administration of a treatment group—mean tumor volume at the start of administration of the treatment group))/(mean tumor volume at the end of treatment of the solvent control group)—mean tumor volume at the start of treatment of the solvent control group)]×100%.
Tumor proliferation rate T/C (%): The formula is as follows: T/C %=T/C×100% (T: treatment group; C: negative control group).
Tumor weights were measured after the end of the experiment and the percentage of T/Cweight was calculated. Tweight and Cweight represent the tumor weights of the drug-administered group and the vehicle control group, respectively.
Statistical analysis, including mean and standard error (SEM) of tumor volume at each time point for each group (see Table 4 for specific data). […] T-test was used for comparison between the two groups, and one-way analysis of variance was used for comparison between three or more groups. If there was a significant difference in F values, the Gass-Howell method was used to test. If there is no significant difference in F values, the Dunnet (2-sided) method is used for analysis. All data analysis was performed with SPSS 17.0. A significant difference was considered at p<0.05.

The molecule `Cc1cccc(-c2nn3c(c2-c2ccc4ncnn4c2/C=C/C(N)=O)CCC3)n1` [Embodiment 1] gave a pIC50 in assay [1] of 5.70 to 6.30. Moreover, the Tumor volume in assay [2] (day 10 of administration) was 102 ± 19 mm^3; in assay [2] (day 13 of administration), 339 ± 89 mm^3; in assay [2] (day 15 of administration) it was 552 ± 147 mm^3; in assay [2] (day 17 of administration) it was 874 ± 240 mm^3; in assay [2] (day 20 of administration) it was 1331 mm^3 and 1331 ± 394 mm^3. For the same molecule, the “Tumor proliferation rate T/C” value in assay [2] (twenty days after start of administration, 75 mg/kg PO and/or 10 mg/kg IP) was determined as 51%. In assay [2] (twenty days after start of administration, 75 mg/kg and/or 10 mg/kg), the “Antitumor effect compared with the solvent control group” value is on record as “no significant antitumor effect”.

What is called pIC50 is the negative decadic logarithm of the IC50, by convention in mol/L.
